Data set [1] has as its system congestive heart failure dogs, coronary perfused left ventricular preparation. Put plainly: Ventricular fibrillation optical mapping, activation patterns, pacing-induced heart failure dogs. The format is in vivo. An excerpt: Animal Models: Twenty-four dogs weighing 25-30 Kg were divided into three groups: control (n=11), congestive heart failure (n=7), and congestive heart failure with the antifibrotic drug pirfenidone (n=6). Heart Failure (CHF) was induced in 7 dogs via four weeks of rapid ventricular pacing via a lead placed in the RV and pulse generator set to pace at 240 bpm followed by ablation of the AV node to create complete heart block, as described in Li, et al., Circulation 1999; 100:87-95. Ventricular function was monitored weekly with transthoracic echocardiography for 4 weeks. At 4 weeks, the optical mapping study was performed.
Heart Failure with Pirfenidone (PFD): Heart failure was induced in 6 dogs as described above and PFD was administered as described in Lee et al., Circulation 2006; 114; 1703-12. Oral PFD (800 mg 3 times per day; InterMune, Brisbane, Calif.) was started 2 days before the initiation of pacing and was discontinued >6 half-lives (24 hours) before the optical mapping study.
Optical Mapping Studies: A coronary perfused left ventricular preparation was used as described in Wu et al., J Cardiovasc Electrophysiol 1998; 9:1336-47. Briefly, following sedation with sodium pentothal (0.25 mg/Kg), a left lateral thoracotomy is performed and the heart was rapidly excised. It was then perfused with cardioplegic solution ((in mmol/L): NaCl 123, KCl 15, NaHCO3 22, NaH2PO4 0.65, MgCl2 0.50, glucose 5.5, CaCl2 2, bubbled with 95% O2/5% CO2) retrogradely through the aorta. The ventricles were removed at approximately 1 cm below the AV ring and the left anterior descending coronary artery (LAD) was perfused. The right ventricle was removed and the left ventricle was cut to the size that was perfused by the LAD and included a papillary muscle. All ventricular branches were then ligated.
The ventricular preparation was then transferred to a tissue chamber maintained at 37° C. The perfusion line in the LAD was perfused with modified Tyrode's solution ((in mmol/L): NaCl 123, KCl 5.4, NaHCO3 22, NaH2PO4 0.65, MgCl2 0.50, glucose 5.5, CaCl2 2, bubbled with 95% O2/5% CO2). Prior to optical recordings, a bolus of 30-40 μl of the voltage sensitive dye PGH-1 was injected directly into the perfusate.
With an optical mapping system described in Wu et al., J Cardiovasc Electrophysiol 1998; 9:1336-47, optical recordings were then made from 4-cm^2 area on 3 surfaces of the preparation (epicardial, endocardial (including the papillary muscle, and transmural) by a 16×16 photodiode array (C4657 Hamamatsu, Bridgewater, N.J.) that recorded 256 simultaneous optical action potentials. During optical recordings from a preparation, contractility was blocked with 15 mM 2,3-butadione monoxime (BDM; Sigma-Aldrich)11. Plunge electrodes were placed on the recording surface around the field of view for both pacing and monitoring. Two plunge electrodes were dedicated for recording a bipolar signal for monitoring the electrical activity of the preparation. VF was initiated with either extra stimuli or with rapid burst pacing at a cycle length of 50 ms, a pulse width of 9.9 ms, and an output of 9.9 mA. Several 4-s episodes of VF were recorded on each surface in each preparation. Activation movies of the VF were then viewed, and the activation patterns were determined. […] Activation patterns and wave-front direction during VF were determined from raw fluorescence movies (isopotential). […]

Data set [2] concerns ischemia-reperfusion rat model. As to conditions: in vivo. The method, then:
After baseline echocardiography, thirty male Sprague-Dawley rats, ages 6-10 weeks, underwent myocardial infarction using an ischemia-reperfusion model. Briefly, rats were anesthetized using inhaled isoflurane (5% induction, 2.5% maintenance, O2 output 1 L/min) and positioned supine on an electrically warmed animal surgery platform. Rats were intubated using a 16-gauge i.v. catheter and then ventilated using a Harvard rodent respirator. After a left thoracotomy and pericardiotomy were performed, a 7-0 Ticron suture was introduced into the myocardium, using the left atrial appendage and right outflow tract as landmarks. The depth of entry was 2 mm, which was slightly greater than the level of the left coronary artery. Both suture ends were then threaded through a PE-90 polyethylene tube 6 in. in length to form a “snare loop” around the artery, closed by pulling on the free ends of the suture. […] The suture was then tightened to occlude the artery for 20 minutes and then removed to allow for reperfusion. The chest was then closed with 5-0 prolene suture, and the animal was allowed to recover. After one week and repeat echocardiography, rats were randomized to placebo rodent feed (control group, n=15) or rodent feed mixed with 1.2% pirfenidone (PFD) (treatment group, n=15) for four weeks. All experiments and data analyses were performed with the operator blinded to treatment group. […]

[3] abbreviates: CHF dogs, oral PFD 800 mg 3 times per day, one line per dog, listed as PFD.

Entries after “also recorded” stand apart in the source; their conditions may differ.

On to `Cc1ccc(=O)n(-c2ccccc2)c1` [pirfenidone], for which, in data set [1] (CHF dogs with PFD), the “mapped epicardial surfaces having either focal activation or a spiral wave” value is reported as 2/6 and the “mapped transmural surfaces with spiral wave activation pattern correlated to stable high DF areas” value amounted to 50%. For the same molecule, in data set [1] (setting [3]), the “VF Activation Patterns, Endocardial” value is “either multiple or broad wavefront activation; also recorded: multiple wave; also recorded: broad wavefront”; the “VF Activation Patterns, Epicardial” value was “multiple wave; also recorded: focal”; the “VF Activation Patterns, Transmural” value is on record as “spiral wave; also recorded: multiple wave”. Besides, in data set [2], the “mortality, CHF, or arrhythmias in treated animals” value is recorded as “No increased mortality, CHF, or arrhythmias”.

The values above are taken from US20110218515A1, “Methods for Treating Acute Myocardial Infarctions and Associated Disorders” (The Regents of the University of California, priority 2009, published 2011).
